Literature values in patent EP4620459A1, “METFORMIN HYDROCHLORIDE ENTERIC-COATED TABLET” (Yayan (Tianjin) Biomedical Technology Center (Limited …, priority 2023, dated 2025).

Details: nausea, abdominal pain, abdominal discomfort, etc.

For `CN(C)C(=N)N=C(N)N` [metformin], the “incidence of gastrointestinal adverse reactions” value is given as 20-30%.
